In US8623877B2, “Substituted N-heteroaryl tetrahydro-isoquinoline derivatives, preparation and therapeutic use thereof” (Sanofi, priority 2010, dated 2014):
Where two headings read alike, the source gives them in different places.

Experiments:
rhesus H3 [1] = molecular target: T1, rhesus H3 (Macaca mulatta, UniProt Q865E1); experiment: Rhesus H3 [3H]-Methylhistamine radioligand binding assay (SPA, cell membranes); design: species or system rhesus monkey (Macacca Mulatta); conditions: [3H]-Methylhistamine 2 nM, Cheng-Prusoff
T1 construct: 445 amino acid H3 receptor; expressed in transfected cells; host or cells: Flp-In T-REx 293 Cell Line (Invitrogen), pcDNA5/FRT/TO, induced with tetracycline
Method: (§1) Rhesus H3 membranes were prepared from the Flp-In T-REx 293 Cell Line (Invitrogen) stably transfected with pcDNA5/FRT/TO (Invitrogen) containing the rhesus monkey (Macacca Mulatta) 445 amino acid H3 receptor. (Genbank #AY231164). Stably transfected cultures were amplified in tissue culture flasks by standard tissue culture methods and induced to express rhesus H3 by exposure to 500 ng/ml tetracycline (Cellgro) for 24 hours. After induction, cells were dissociated from flasks utilizing Cell Stripper (Cellgro). Cells were centrifuged (1 K×g, 5 min) and pellet frozen in an ethanol-dry ice bath to disrupt cell membranes. Frozen cell pellet was re-suspended in 5 mM HEPES (pH 7.4, Invitrogen) at 10 ml/1000 cm2 of harvested cells. The cell suspension was drawn through an 18 gauge needle (2-3×) followed by a 23 gauge needle (2-3×) to further disrupt cell membranes. The cell suspension was centrifuged (40K×g, 30 min). Cell membrane pellet was re-suspended in 5 mM HEPES (pH 7.4, Invitrogen) at a final protein concentration of 10 mg/ml. Rhesus H3 membranes were stored under liquid nitrogen prior to use in [3H]-Methylhistamine and GTPγS radioligand binding assays.
(§2) Rhesus H3 radioligand binding assay was performed using rhesus H3 receptor membranes (prepared as described above), [3H]-Methylhistamine (Perkin Elmer) and WGA SPA beads (wheat germ agglutinin scintillation proximity assay) beads (Amersham). The assay was performed in 96-well Opti-Plates (Packard). Each reaction contained 50 μl rhesus H3 membranes (20-30 μg total protein), 50 μl WGA SPA beads (0.1 μg) and 50 μl of 83 Ci/mmol [^3H]-Methylhistamine (final concentration 2 nM) and 50 μl of tested compound. The compounds of this invention and/or vehicle were diluted with binding buffer from 10 mM DMSO stocks. Assay plates were sealed with TopSeal (Perkin Elmer) and mixed on shaker (25° C., 1 hour). Assay plates were read on TopCount scintillation counter (Packard). Results were analyzed by Hill transformation and Ki values were determined by Cheng-Prusoff equation. Similar procedure was employed to determine the binding data for rat.

Rat H3 = Rat H3 (Rattus norvegicus, UniProt Q9QYN8); experiment: Rat H3 radioligand binding assay (similar procedure)
Method: as §2

rhesus H3 [2] = molecular target: T1, rhesus H3; experiment: GTPγS radioligand binding assay, inhibition of rhesus H3 constitutive functional activity in cell membranes; assay type: biochemical, rhesus monkey (Macacca Mulatta); conditions: basal rhesus H3-mediated GTPγS binding
Method: as §1

[3] = rat H3, similar procedure to the rhesus binding assay, read-out: Rat H3 Binding ki

T1 sequence (Q865E1 1-445): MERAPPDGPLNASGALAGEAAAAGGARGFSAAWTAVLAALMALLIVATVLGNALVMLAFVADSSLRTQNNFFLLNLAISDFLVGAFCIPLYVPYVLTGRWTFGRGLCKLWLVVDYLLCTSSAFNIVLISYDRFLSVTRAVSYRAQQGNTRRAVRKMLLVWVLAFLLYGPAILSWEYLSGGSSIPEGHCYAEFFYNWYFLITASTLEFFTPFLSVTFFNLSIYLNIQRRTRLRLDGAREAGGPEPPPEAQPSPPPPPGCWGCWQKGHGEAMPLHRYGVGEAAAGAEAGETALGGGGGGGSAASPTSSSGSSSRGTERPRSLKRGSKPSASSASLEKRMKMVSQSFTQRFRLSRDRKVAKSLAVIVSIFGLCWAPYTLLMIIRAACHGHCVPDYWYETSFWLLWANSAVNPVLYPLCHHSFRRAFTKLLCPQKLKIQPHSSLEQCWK
Rat H3, sequence (Q9QYN8 whole entry): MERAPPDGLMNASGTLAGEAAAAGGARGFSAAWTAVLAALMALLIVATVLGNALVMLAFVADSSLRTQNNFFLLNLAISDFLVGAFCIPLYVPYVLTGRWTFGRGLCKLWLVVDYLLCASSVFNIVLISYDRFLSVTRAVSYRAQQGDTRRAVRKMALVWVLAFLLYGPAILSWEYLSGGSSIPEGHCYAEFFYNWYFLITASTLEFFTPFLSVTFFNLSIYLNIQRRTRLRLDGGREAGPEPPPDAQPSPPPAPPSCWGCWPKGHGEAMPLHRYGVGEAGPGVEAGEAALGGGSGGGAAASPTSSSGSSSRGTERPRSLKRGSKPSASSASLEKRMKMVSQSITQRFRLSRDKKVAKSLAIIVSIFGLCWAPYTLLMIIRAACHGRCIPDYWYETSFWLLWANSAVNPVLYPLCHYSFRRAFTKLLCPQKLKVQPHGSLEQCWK

| Ki (rhesus H3 [1]) [nM] | Ki (Rat H3; [3]) [nM] | GTPγS-35 ASSAY % Inverse Agonism (rhesus H3 [2]) [%] | SMILES | Ki (Rat H3) [nM] |
| --- | --- | --- | --- | --- |
| 15 | 50 | −20.9 | Cc1cc(C(F)(F)F)cc(N2CCc3cc(N4CC[C@H](N5CCC[C@@H]5C)C4)ccc3C2)n1 [Example 11, 6-((2S,3′S)-2-Methyl-[1,3′]bipyrrolidinyl-1′-yl)-2-(6-methyl-4-trifluoromethyl-pyridin-2-yl)-1,2,3,4-tetrahydro-isoquinoline] | – |
| 1.3 | 6.1 | −23.3 | C[C@H]1CCCN1[C@H]1CCN(c2ccc3c(c2)CCN(c2ccc(F)cn2)C3)C1 [Example 12, 2-(5-Fluoro-pyridin-2-yl)-6-((2S,3′S)-2-methyl-[1,3′]bipyrrolidinyl-1′-yl)-1,2,3,4-tetrahydro-isoquinoline] | – |
| 0.58 | 1.7 | −27.3 | Cc1ccnc(N2CCc3cc(N4CC[C@H](N5CCC[C@@H]5C)C4)ccc3C2)c1 [Example 13, 6-((2S,3′S)-2-Methyl-[1,3′]bipyrrolidinyl-1′-yl)-2-(4-methyl-pyridin-2-yl)-1,2,3,4-tetrahydro-isoquinoline] | – |
| 35 | 310 | −18.3 | C[C@H]1CCCN1[C@H]1CCN(c2ccc3c(c2)CCN(c2ncc(C(F)(F)F)cc2Cl)C3)C1 [Example 14, 2-(3-Chloro-5-trifluoromethyl-pyridin-2-yl)-6-((2S,3′S)-2-methyl-[1,3′]bipyrrolidinyl-1′-yl)-1,2,3,4-tetrahydro-isoquinoline] | – |
| 4.8 | 22 | −13.8 | C[C@H]1CCCN1[C@H]1CCN(c2ccc3c(c2)CCN(c2cccc(N4CCCC4)n2)C3)C1 [Example 15, 6-((2S,3′S)-2-Methyl-[1,3′]bipyrrolidinyl-1′-yl)-2-(6-pyrrolidin-1-yl-pyridin-2-yl)-1,2,3,4-tetrahydro-isoquinoline] | – |
| 4.6 | 27 | −21.9 | C[C@H]1CCCN1[C@H]1CCN(c2ccc3c(c2)CCN(c2ccc(Cl)cn2)C3)C1 [Example 16, 2-(5-Chloro-pyridin-2-yl)-6-((2S,3′S)-2-methyl-[1,3′]bipyrrolidinyl-1′-yl)-1,2,3,4-tetrahydro-isoquinoline] | – |
| 26 | 1.2 | −8.2 | C[C@H]1CCCN1[C@H]1CCN(c2ccc3c(c2)CCN(c2cnc4ccccc4c2)CC3)C1 [Example 18, 7-((2S,3′S)-2-Methyl-[1,3′]bipyrrolidinyl-1′-yl)-3-quinolin-3-yl-2,3,4,5-tetrahydro-1H-benzo[d]azepine] | – |
| 25 | 0.93 | −8.9 | C[C@H]1CCCN1[C@H]1CCN(c2ccc3c(c2)CCN(c2ccc(C(F)(F)F)cn2)CC3)C1 [Example 19, 7-((2S,3′S)-2-Methyl-[1,3′]bipyrrolidinyl-1′-yl)-3-(5-trifluoromethyl-pyridin-2-yl)-2,3,4,5-tetrahydro-1H-benzo[d]azepine] | – |
| 10 | 0.27 | −8.4 | CNC(=O)c1ccc(N2CCc3ccc(N4CC[C@H](N5CCC[C@@H]5C)C4)cc3CC2)nc1 [Example 20, N-Methyl-6-[7-((2S,3′S)-2-methyl-[1,3′]bipyrrolidinyl-1′-yl)-1,2,4,5-tetrahydro-benzo[d]azepin-3-yl]-nicotinamide] | – |

Further lines, the compound ahead of its results:

| SMILES | Ki (rhesus H3 [1]) [nM] | Ki (Rat H3; [3]) [nM] | GTPγS-35 ASSAY % Inverse Agonism (rhesus H3 [2]) [%] | Ki (Rat H3) [nM] |
| --- | --- | --- | --- | --- |
| CNC(=O)c1ccc(N2CCc3cc(N4CC[C@H](N5CCC[C@@H]5C)C4)ccc3C2)nc1 [Example 1, N-Methyl-6-[6-((2S,3′S)-2-methyl-[1,3′]bipyrrolidinyl-1′-yl)-3,4-dihydro-1H-isoquinolin-2-yl]-nicotinamide] | 0.39 | 0.95 | – | – |
| C[C@H]1CCCN1[C@H]1CCN(c2ccc3c(c2)CCN(c2ccc(C(F)(F)F)cn2)C3)C1 [Example 2, 6-((2S,3′S)-2-Methyl-[1,3′]bipyrrolidinyl-1′-yl)-2-(5-trifluoromethyl-pyridin-2-yl)-1,2,3,4-tetrahydro-isoquinoline] | 29 | 56 | −37.4 | – |
| C[C@H]1CCCN1[C@H]1CCN(c2ccc3c(c2)CCN(c2cccnc2Cl)C3)C1 [Example 3, 2-(2-Chloro-pyridin-3-yl)-6-((2S,3′S)-2-methyl-[1,3′]bipyrrolidinyl-1′-yl)-1,2,3,4-tetrahydro-isoquinoline] | 2.2 | 6.1 | −14.7 | – |
| Cc1cccc(N2CCc3cc(N4CC[C@H](N5CCC[C@@H]5C)C4)ccc3C2)n1 [Example 4, 6-((2S,3′S)-2-Methyl-[1,3′]bipyrrolidinyl-1′-yl)-2-(6-methyl-pyridin-2-yl)-1,2,3,4-tetrahydro-isoquinoline] | 0.48 | 0.4 | −46.7 | – |
| C[C@H]1CCCN1[C@H]1CCN(c2ccc3c(c2)CCN(c2cnc(Br)nc2)C3)C1 [Example 5, 2-(2-Bromo-pyrimidin-5-yl)-6-((2S,3′S)-2-methyl-[1,3′]bipyrrolidinyl-1′-yl)-1,2,3,4-tetrahydro-isoquinoline] | 24 | 92 | −36.4 | – |
| C[C@H]1CCCN1[C@H]1CCN(c2ccc3c(c2)CCN(c2cncnc2)C3)C1 [Example 6, 6-((2S,3′S)-2-Methyl-[1,3′]bipyrrolidinyl-1′-yl)-2-pyrimidin-5-yl-1,2,3,4-tetrahydro-isoquinoline] | 0.98 | 1.5 | −48.7 | – |
| C[C@H]1CCCN1[C@H]1CCN(c2ccc3c(c2)CCN(c2cnc4ccccc4c2)C3)C1 [Example 7, 3-[6-((2S,3′S)-2-Methyl-[1,3′]bipyrrolidinyl-1′-yl)-3,4-dihydro-1H-isoquinolin-2-yl]-quinoline] | 0.28 | 26 | −32.5 | – |
| C[C@H]1CCCN1[C@H]1CCN(c2ccc3c(c2)CCN(c2nc4ccccc4o2)C3)C1 [Example 8, 2-Benzooxazol-2-yl-6-((2S,3′S)-2-methyl-[1,3′]bipyrrolidinyl-1′-yl)-1,2,3,4-tetrahydro-isoquinoline] | 680 | 1200 | −29.4 | – |
| Cc1ccc(S(=O)(=O)N2CCc3cc(N4CCc5cc(N6CC[C@H](N7CCC[C@@H]7C)C6)ccc5C4)ccc3C2)cc1 [Example 9, 6-((2S,3′S)-2-Methyl-[1,3′]bipyrrolidinyl-1′-yl)-2′-(toluene-4-sulfonyl)-3,4,1′,2′,3′,4′-hexahydro-1H-[2,6′]biisoquinolinyl] | 180 | 380 | −13.0 | – |
| COc1cncc(N2CCc3cc(N4CC[C@H](N5CCC[C@@H]5C)C4)ccc3C2)c1 [Example 10, 2-(5-Methoxy-pyridin-3-yl)-6-((2S,3′S)-2-methyl-[1,3′]bipyrrolidinyl-1′-yl)-1,2,3,4-tetrahydro-isoquinoline] | 0.24 | 0.5 | −16.7 | – |
| C[C@H]1CCCN1[C@H]1CCN(c2ccc3c(c2)CCNCC3)C1 [Example 17, 7-((2S,3′S)-2-Methyl-1,3′-bipyrrolidinyl-1′-yl)-2,3,4,5-tetrahydro-1H-3-benzazepine] | 1.2 | – | −14.7 | 5.9 |
